One data set can be described thus: in vitro. The method, then:
The PAMPA-BBB assay was conducted according to the methodology followed by Di et al., with some modifications as described below ([15]). First, the BBB solution was prepared by dissolving 8 mg of PBL and 4 mg of cholesterol in 600 μl of n-dodecane. The initial donor solution was prepared by mixing 1 ml of extract (10 mg ml^−1 in EtOH) with 1 ml of buffer (PBS, pH = 7.4, 10 mM). The filter membrane of the donor plate was carefully coated with 5 μl of BBB solution. The acceptor plate was filled with 350 μl of buffer, and the donor plate was carefully assembled over the acceptor plate like a “sandwich.” Finally, the donor plate was filled with 350 μl of donor solution, covered, and incubated for 4 h at 37°C in the dark. After incubation time, 300 μl of the solution was taken from both plates, transferred to separate vials, and dried in the SpeedVac system at 40°C and 13 mbar pressure. Dried acceptor and donor solution were dissolved in 50 μl of pure EtOH before subjecting to UHPLC-Q-TOF-MS analysis. Permeability across in vitro BBB of the bioactive compound was measured according to Equation (1) ([25]), with some modifications in concentration rates.
(1) Pe=-ln[1-CA(t)/Ce]/A^*(1/VD+1/VA)^*t
Cequilibrium was calculated according to the following equation ([2]):
(2) Cequilibrium=[CD(t)*VD+CA(t)*VA]/(VD+VA)

For data set [1] the following is noted: ref PubChem database, cited from earlier work.
[2] abbreviates: PAMPA, pH 7.4, PAMPA-BBB log Pe (cm s−1), compound within KD extract, 4 h, 37°C, PBS pH 7.4.
[3] abbreviates: PAMPA, pH 7.4, PAMPA-BBB log Pe, compound within LPLE (Nothofagus pumilio, lenga PLE extract), N.D = not detected in acceptor.
Where [4] appears, read: compounds identified in LPLE extract.
Setting [5] is: compounds of RSFE extract, octanol-water partition coefficient.
[6] abbreviates: compound within RSFE extract, 4 h, 37°C, PBS pH 7.4.

Read-outs that look alike come from different tables or passages of the source.

With `COc1cc(C(=O)O)ccc1O` [Vanillic acid], the apparent permeability (Papp) (usually a coefficient for how fast a substance crosses the barrier) at 4 h was 2.14 ×10⁻⁶ cm/s in the data set “in vitro” (PAMPA, pH 7.4, PAMPA-BBB log Pe (cm s−1), compound within ASFE extract, 4 h, 37°C, PBS pH 7.4); 55 ×10⁻⁶ cm/s in “in vitro” (setting [2]); 1.35 ×10⁻⁶ cm/s in “in vitro” (setting [3]). The “Cross BBB potential” value is on record as “+ (log Pe > −6.5)” in the data set “in vitro” (compound within ASFE extract); “+++ (log Pe > −4.5)” in “in vitro” (compound within KD extract); “+ (log Pe > −6.5)” in the data set “in vitro” (compound within LPLE (Nothofagus pumilio, lenga PLE extract), classes based on Könczöl et al.). For the same compound, the “Log P” value in data set [1] (setting [4]), in data set [1] (compounds of ASFE extract) and in data set [1] (compounds of KD extract) was 1.4 throughout.

Turning to `COc1c(O)cc2oc(-c3ccc(O)c(O)c3)c(O)c(=O)c2c1O` [Patuletin], in the data set “in vitro” (compound within KD extract), the “Cross BBB potential” value is listed as “-”. Moreover, the log partition coefficient (Log P) (in general, the decadic logarithm of the partition coefficient of the neutral form, usually between octanol and water) in data set [1] (compounds of KD extract) is on record as 2.1.

As for `CC(C)=CCc1cc(/C=C/C(=O)O)cc(CC=C(C)C)c1O` [Artepillin C], the “Cross BBB potential” value in “in vitro” (PAMPA) is on record as “+++”. Further, the “PAMPA-BBB log Pe (cm s−1)” value in “in vitro” (PAMPA, 4 h, pH 7.4) is recorded as −4.42 cm s−1. For the same compound, the “Log P” value in data set [1] (setting [5]) was 5.4.

In turn, `COc1ccc(-c2cc(=O)c3c(O)c(O)c(OC)cc3o2)cc1` [Ladanein] gave a Papp at 4 h in the data set “in vitro” (PAMPA, pH 7.4, PAMPA-BBB log Pe (cm s−1), compound within RSFE extract, 4 h, 37°C, PBS pH 7.4) of 141 ×10⁻⁶ cm/s. Also, the “Cross BBB potential” value in the data set “in vitro” (compound within RSFE extract) is “+++ (log Pe > −4.5)”. The log partition coefficient (Log P) in data set [1] (setting [5]) was 2.0.

Consider `O=C(O)c1ccc(O)cc1` [p-salycilic acid], for which the “Cross BBB potential” value in “in vitro” (compound within RSFE extract) is recorded as “+++ (log Pe > −4.5)”; in the data set “in vitro” (compound within T33 extract) it was “++ (log Pe > −5.5)”. Further, the “PAMPA-BBB log Pe (cm s−1)” value in the data set “in vitro” (setting [6]) was −4.18 cm s−1; in the data set “in vitro” (compound within T33 extract, 4 h, 37°C, PBS pH 7.4), −4.75 cm s−1. Also, the “Log P” value in data set [1] (setting [5]) is on record as 1.6.

Take `COc1c(O)cc2oc(-c3ccc(O)c(O)c3)cc(=O)c2c1O` [Eupafolin]: the Papp at 4 h in the data set “in vitro” (setting [2]) was 339 ×10⁻⁶ cm/s. In “in vitro” (compound within KD extract), the “Cross BBB potential” value was “+++ (log Pe > −4.5)”. In data set [1] (compounds of KD extract), the “Log P” value is reported as 1.4.

`O=c1c(O)c(-c2ccc(O)c(O)c2)oc2cc(O)cc(O)c12` [Quercetin, reference compound]: the apparent permeability (Papp) at 4 h in the data set “in vitro” (PAMPA, pH 7.4, LogPe, permeability of BBB to quercetin, present study) was 0.0955 ×10⁻⁶ cm/s; in “in vitro” (setting [3]), 0.0245 ×10⁻⁶ cm/s. In addition, the lipophilicity (Log P) in data set [1] (setting [4]), in data set [1] (compounds of ASFE extract) and in data set [1] (compounds of KD extract) was 1.5 each time.

Consider `C[C@]12C[C@@H](O)[C@H]3[C@@H](CC[C@]4(O)C[C@@H](O)CC[C@]34CO)[C@@]1(O)CC[C@@H]2c1ccc(=O)oc1` [11α,19-dihydroxytelocinobufagin], for which the “Cross BBB potential” value in “in vitro” (compound within KD extract) is recorded as “-”. Moreover, in data set [1] (compounds of KD extract), the log partition coefficient (Log P) is 3.63.

Take `CC(C)c1cc2c(c(O)c1O)[C@@]13CCCC(C)(C)[C@@H]1[C@H](OC3=O)C2=O` [Galdosol]: the “Cross BBB potential” value in “in vitro” (PAMPA) was “+++”. For the same compound, the “PAMPA-BBB log Pe (cm s−1)” value in the data set “in vitro” (PAMPA, 4 h, pH 7.4) is −4.41 cm s−1. Besides, the “Log P” value in data set [1] (setting [5]) was 4.

With `C=C1CC[C@]2(C(=O)O)CC[C@]3(C)C(=CC[C@@H]4[C@@]5(C)CC[C@H](O)C(C)(C)[C@@H]5CC[C@]43C)[C@@H]2[C@H]1C` [Micromeric acid], in the data set “in vitro” (compound within RSFE extract), the “Cross BBB potential” value is on record as “-”. Further, the “Log P” value in data set [1] (setting [5]) is reported as 6.5.

For `CC/C=C/CC(O)C(O)/C=C/C(O)CCCCCCCC(=O)O` (centres unmarked), in the data set “in vitro” (PAMPA), the “Cross BBB potential” value is on record as “+++”. Besides, the “PAMPA-BBB log Pe (cm s−1)” value in the data set “in vitro” (PAMPA, 4 h, pH 7.4) is given as −3.73 cm s−1. Besides, the “Log P” value in data set [1] (setting [5]) is reported as 2.6.

Take `CC(=O)O[C@H]1C[C@H](C)O[C@@H](O[C@H]2CC[C@]3(C=O)[C@H]4[C@H](O)C(=O)[C@]5(C)[C@@H](c6ccc(=O)oc6)CC[C@]5(O)[C@@H]4CC[C@]3(O)C2)[C@H]1O` [Kalantuboside A]: the “Cross BBB potential” value in the data set “in vitro” (compound within KD extract) is “-”. The log partition coefficient (Log P) in data set [1] (compounds of KD extract) is 7.5.

In the case of `COc1cc(-c2oc3cc(O)cc(O)c3c(=O)c2O[C@@H]2O[C@H](CO)[C@@H](O)[C@H](O)[C@H]2O)ccc1O` [Isorhamnetin-3-O-glucoside], the “Cross BBB potential” value in “in vitro” (compound within RSFE extract) is “-”. Also, the log partition coefficient (Log P) in data set [1] (setting [5]) is 0.7.

For the compound Methydihydrojasmonic acid, the “Cross BBB potential” value in “in vitro” (PAMPA) is listed as “+++”. Besides, in “in vitro” (PAMPA, 4 h, pH 7.4), the “PAMPA-BBB log Pe (cm s−1)” value is given as −3.96 cm s−1. Besides, the “Log P” value in data set [1] (setting [5]) was 1.6.

Consider Desdimethyl-octahydro-iso- cohumulone, for which the “Cross BBB potential” value in the data set “in vitro” (compound within RSFE extract) is “+++ (log Pe > −4.5)”. The “PAMPA-BBB log Pe (cm s−1)” value in “in vitro” (setting [6]) is −4.30 cm s−1. For the same compound, in data set [1] (setting [5]), the lipophilicity (Log P) was 3.8.

The values above are taken from article PMC9243654 (Frontiers in Nutrition, 2022).
